Read-outs that look alike come from different tables or passages of the source.
Experiments:
Format in all cases: cell-based
[1] = test system: Leukemia T lymphocytes (Jurkat); assay: Antiproliferative activity, trypan blue staining and automated counting; settings: Homo sapiens
Protocol: (§1) The antiproliferative activity of vitamin C (L-ascorbic acid) and/or compound A6 was determined in Colon26 (colon cancer), GS9L (glioblastoma), Jurkat (leukemia), MCF7 (breast cancer), and U87MG (glioblastoma). Jurkat cells were cultured in RPMI-1640 medium supplemented with 10% heat-inactivated fetal bovine serum (FBS), penicillin (100 U/mL), and streptomycin (100 μg/mL). Normal lymphocytes were cultured in the same medium supplemented with 10% FBS only. Adhesive cancer cell lines (Colon26, GS9L, MCF7, and U87MG) were cultured in DMEM supplemented with 10% FBS, penicillin (100 U/mL), and streptomycin (100 μg/mL). Adhesive non-cancer cell lines, FHC and MCF10A, were cultured in DMEM-F12 and DMEM, respectively, each supplemented with 10% FBS and growth factors. EOC2 cells were cultured in DMEM supplemented with 10% FBS. All cells were cultured in a humidified atmosphere containing 5% CO2 at 37° C. The adhesive cells were released using a trypsin-EDTA solution (0.05% of trypsin/EDTA) and subsequently washed with PBS. The cells were collected by centrifugation (1,000×g/10 min for leukemia lymphocytes; 1,500×g/15 min for normal lymphocytes; and 800×g/5 min for adhesive cells) and placed in a fresh medium without antibiotics and growth factors prior to treatment with vitamin C and/or compound A6. The cells (1×10^6 cells/mL for non-adhesive and 3×10^5 cells/mL for adhesive) were incubated with vitamin C and/or compound A6 for different time intervals in a cell incubator. At each time interval, aliquots were removed for analyses. For lymphocytes, cell proliferation and viability were analyzed by trypan blue staining and automated counting using a COUNTESS automated cell counter. Briefly, 10 μL of trypan blue (0.4%) was added to 10 μL of a cell suspension and incubated for 30 s, and 10 μL of the cell suspension was placed in a COUNTESS glass chamber. The numbers of live and dead cells in the suspension were counted automatically. The linear range of operation with the automated cell counter was 1×10^4-5×10^6 cells/mL, and the optimal cell size was in the range of […].

Normal lymphocytes = assay: as above; settings: Lymphocyte, combination of vitamin C and compound A6 (weight ratio 100:1), concentration of the named component
Protocol: as §1

[2] = test system: Lymphoma B lymphocytes (Raji); assay: as above; settings: Homo sapiens
[3] = test system: Breast cancer cells (MCF7); assay: Antiproliferative activity, CELLTITER-GLO luminescent cell viability assay; settings: Homo sapiens, combination of vitamin C and compound A6 (weight ratio 100:1), concentration of the named component
Protocol: (§2) The antiproliferative activity of vitamin C (L-ascorbic acid) and/or compound A6 was determined in Colon26 (colon cancer), GS9L (glioblastoma), Jurkat (leukemia), MCF7 (breast cancer), and U87MG (glioblastoma). Jurkat cells were cultured in RPMI-1640 medium supplemented with 10% heat-inactivated fetal bovine serum (FBS), penicillin (100 U/mL), and streptomycin (100 μg/mL). Normal lymphocytes were cultured in the same medium supplemented with 10% FBS only. Adhesive cancer cell lines (Colon26, GS9L, MCF7, and U87MG) were cultured in DMEM supplemented with 10% FBS, penicillin (100 U/mL), and streptomycin (100 μg/mL). Adhesive non-cancer cell lines, FHC and MCF10A, were cultured in DMEM-F12 and DMEM, respectively, each supplemented with 10% FBS and growth factors. EOC2 cells were cultured in DMEM supplemented with 10% FBS. All cells were cultured in a humidified atmosphere containing 5% CO2 at 37° C. The adhesive cells were released using a trypsin-EDTA solution (0.05% of trypsin/EDTA) and subsequently washed with PBS. The cells were collected by centrifugation (1,000×g/10 min for leukemia lymphocytes; 1,500×g/15 min for normal lymphocytes; and 800×g/5 min for adhesive cells) and placed in a fresh medium without antibiotics and growth factors prior to treatment with vitamin C and/or compound A6. The cells (1×10^6 cells/mL for non-adhesive and 3×10^5 cells/mL for adhesive) were incubated with vitamin C and/or compound A6 for different time intervals in a cell incubator. At each time interval, aliquots were removed for analyses. For other cell lines, cell proliferation and viability were analyzed using the CELLTITER-GLO luminescent cell viability assay. Briefly, 100 μL aliquots of a cell suspension were placed in a well of a 96-well plate and incubated with vitamin C and/or compound A6 for 24 and 48 h in a humidified atmosphere containing 5% CO2 at 37° C. The CELLTITER-GLO reagent containing luciferin and luciferase (100 μL) was added to each well, followed by incubation. The luminescence produced by the luciferase-catalyzed conversion of luciferin into oxyluciferin by living cells was detected using a microplate reader in a chemiluminescent mode.

[4] = test system: Colon cancer cells (Colon 26); assay: as above; settings: Mus musculus
Protocol: as §2

[5] = test system: Human glioblastoma cells (U87MG); assay: as above; settings: U-87 MG, combination of vitamin C and compound A6 (weight ratio 100:1), concentration of the named component
Protocol: as §2

[6] = test system: Normal breast epithelial cells (MCF10A); assay: as above; settings: Homo sapiens, MCF-10A, combination of vitamin C and compound A6 (weight ratio 100:1), concentration of the named component
Protocol: as §2

[7] = test system: Normal colon epithelial cells (FHC); assay: as above; settings: combination of vitamin C and compound A6 (weight ratio 100:1), concentration of the named component
Protocol: as §2

Normal microglial cells = assay: as above; settings: combination of vitamin C and compound A6 (weight ratio 100:1), concentration of the named component
Protocol: as §2

[8] = combination of vitamin C and compound A6 (weight ratio 100:1), concentration of the named component, read-out: IC50
[9] = compound alone, read-out: IC50 (μM) Jurkat
[10] = compound alone, read-out: IC50 (μM) Raji
[11] = Colon26, compound alone, read-out: IC50 (μM) Colon26

Row | SMILES | IC50 [1, 8] | IC50 [1, 9] | IC50 (Normal lymphocytes) | IC50 [2, 8] | IC50 [2, 10] | IC50 [3] | IC50 [4, 11] | IC50 [4, 8] | IC50 [5] | IC50 [6] | IC50 [7] | IC50 (Normal microglial cells)
1 | COC1=C(OC)C(=O)C(C)=CC1=O [Compound A6, 2,3-dimethoxy-5-methyl-1,4-benzoquinone] | 300 µM | 5 µM | > 2000 µM | 500 µM | > 20 µM | 350 µM | > 20 µM | 480 µM | 1100 µM | > 2000 µM | > 2000 µM | > 2000 µM
2 | O=C1O[C@H]([C@@H](O)CO)C(O)=C1O [Vitamin C, L-ascorbic acid] | 3 µM | 2000 µM | > 20 µM | 5 µM | > 2000 µM | 3.5 µM | > 2000 µM | 4.8 µM | 11 µM | > 20 µM | > 20 µM | > 20 µM

Reference: US20220409554A1, “ASCORBIC ACID AND QUINONE COMPOUND FOR CANCER TREATMENT” (IC-MedTech Corp., priority 2021, published 2022)
